Laboratory results: US6808904B2, “Herbicide-tolerant protox genes produced by DNA shuffling” (priority 1994, dated 2004)

Columns and labels:
[1] = test system: Arabidopsis line expressing AraC-2Ile+AraC305Leu; test: Cross tolerance in a seed germination assay, homozygous Arabidopsis line with AraC-2Ile+AraC305Leu; type: in vivo, Arabidopsis thaliana; conditions: AraC-2Ile+AraC305Leu line vs wt
Method: Using the procedure described above, an Arabidopsis protox-1 cDNA containing a TAC to ATG (Tyrosine to Methionine) change at nucleotides 1306-1308 in the protox-1 sequence (SEQ ID NO:1) was fused to the native protox-1 promoter fragment and transformed into Arabidopsis thaliana. […] Seed from the vacuum infiltrated plants was collected and plated on a range (10.0 nM-1.0 uM) of a protox inhibitory aryluracil herbicide of formula XVII. Multiple experiments with wild type Arabidopsis have shown that a 10.0 nM concentration of this compound is sufficient to prevent normal seedling germination. Transgenic seeds expressing the AraC-2Met altered enzyme fused to the native protox-1 promoter produced normal Arabidopsis seedlings at herbicide concentrations up to 500 nM, indicating at least 50-fold higher herbicide tolerance when compared to wild-type Arabidopsis. This promoter/altered protox enzyme fusion therefore functions as an effective selectable marker for plant transformation. Several of the plants that germinated on 100.0 nM of protox-inhibiting herbicide were transplanted to soil, grown 2-3 weeks, and tested in a spray assay with various concentrations of the protox-inhibiting herbicide. When compared to empty vector control transformants, the AraPT1Pro/AraC-2Met transgenics were >10-fold more tolerant to the herbicide spray.
Using the procedure described above, an Arabidopsis protox-1 cDNA containing both a TAC to ATC (tyrosine to isoleucine) change at nucleotides 1306-1308 and a TCA to TTA (serine to leucine) change at nucleotides 945-947 in the protox-1 sequence (SEQ ID NO:1) was fused to the native protox-1 promoter fragment and transformed into Arabidopsis thaliana.

[2] = target: T1, plant protox mutants (Arabidopsis protox-1) in SASX38 (Arabidopsis thaliana, UniProt P55826, A220L/T56K); test: Bacterial cross-tolerance testing of resistant mutant plasmids in SASX38, Arabidopsis protox-1 mutants; type: cell-based; design: key to Cross tolerance, AraC-1Val / Cross tolerance, AraC-2Cys / Cross tolerance, AraC-1Thr / Cross tolerance, AraC-3Thr / Cross tolerance, AraC-2Ile / Cross tolerance, AraC-2Cys + AraC425Ser: + = 10× or more tolerant than WT; ++ = 100× or more tolerant than WT; − = no cross tolerance; conditions: mutant AraC-1Leu
T1 construct: contains only 17 amino acids of the putative chloroplast transit peptide; expressed in transfected cells; host or cells: E. coli SASX38 (hemG mutant)
T1 sequence (P55826 41-537 T56K/A220L): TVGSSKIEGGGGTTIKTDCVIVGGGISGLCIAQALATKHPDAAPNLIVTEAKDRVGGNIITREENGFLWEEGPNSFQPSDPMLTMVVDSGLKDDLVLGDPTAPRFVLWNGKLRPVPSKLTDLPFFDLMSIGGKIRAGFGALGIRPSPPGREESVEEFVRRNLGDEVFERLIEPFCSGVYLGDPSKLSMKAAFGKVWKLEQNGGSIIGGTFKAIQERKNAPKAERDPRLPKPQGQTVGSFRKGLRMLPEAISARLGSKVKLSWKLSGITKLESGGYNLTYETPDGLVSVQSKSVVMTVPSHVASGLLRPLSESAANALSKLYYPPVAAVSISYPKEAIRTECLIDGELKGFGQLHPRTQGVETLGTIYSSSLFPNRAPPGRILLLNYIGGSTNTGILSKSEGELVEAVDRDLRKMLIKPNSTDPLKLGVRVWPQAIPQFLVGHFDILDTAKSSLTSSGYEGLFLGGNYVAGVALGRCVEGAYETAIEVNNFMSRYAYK
Method: (§1) Resistant mutant plasmids, originally identified based on resistance against a single protox inhibitory herbicide, were tested against a spectrum of other protox inhibiting compounds. For this test, the SASX38 strain containing the wild-type plasmid is plated on a range of concentrations of each compound to determine the lethal concentration for each one. Resistant mutant plasmids in SASX38 are plated and scored for the ability to survive on a concentration of each compound at least 10 fold higher than the concentration that is lethal to the SASX38 strain containing the wild-type plasmid.

[3] = target: T2, plant protox mutants (Arabidopsis protox-1) in SASX38 (Arabidopsis thaliana, UniProt P55826, S305L/T56K/Y426I); test: as above; type: cell-based; design: key to Cross tolerance, AraC-1Val / Cross tolerance, AraC-2Cys / Cross tolerance, AraC-1Thr / Cross tolerance, AraC-3Thr / Cross tolerance, AraC-2Ile / Cross tolerance, AraC-2Cys + AraC425Ser: + = 10× or more tolerant than WT; ++ = 100× or more tolerant than WT; − = no cross tolerance; conditions: mutant AraC-2Ile + AraC305Leu
T2 construct: contains only 17 amino acids of the putative chloroplast transit peptide; expressed in transfected cells; host or cells: E. coli SASX38 (hemG mutant)
T2 sequence (P55826 41-537 T56K/S305L/Y426I): as the sequence (P55826 41-537 T56K/A220L) above, with L180A, S265L, Y386I counted along it
Method: as §1

[4] = target: T3, plant protox mutants (Arabidopsis protox-1) in SASX38 (Arabidopsis thaliana, UniProt P55826, N425S/T56K/Y426C); test: as above; type: cell-based; design: key to Cross tolerance, AraC-1Val / Cross tolerance, AraC-2Cys / Cross tolerance, AraC-1Thr / Cross tolerance, AraC-3Thr / Cross tolerance, AraC-2Ile / Cross tolerance, AraC-2Cys + AraC425Ser: + = 10× or more tolerant than WT; ++ = 100× or more tolerant than WT; − = no cross tolerance; conditions: mutant AraC-2Cys + AraC425Ser
T3 construct: contains only 17 amino acids of the putative chloroplast transit peptide; expressed in transfected cells; host or cells: E. coli SASX38 (hemG mutant)
T3 sequence (P55826 41-537 T56K/N425S/Y426C): as the sequence (P55826 41-537 T56K/A220L) above, with L180A, N385S, Y386C counted along it
Method: as §1

[5] = target: T4, plant protox mutants (Arabidopsis protox-1) in SASX38 (Arabidopsis thaliana, UniProt P55826, N425S/T56K/Y426M); test: as above; type: cell-based; design: key to Cross tolerance, AraC-1Val / Cross tolerance, AraC-2Cys / Cross tolerance, AraC-1Thr / Cross tolerance, AraC-3Thr / Cross tolerance, AraC-2Ile / Cross tolerance, AraC-2Cys + AraC425Ser: + = 10× or more tolerant than WT; ++ = 100× or more tolerant than WT; − = no cross tolerance; conditions: mutant AraC-2Met + AraC425Ser
T4 construct: contains only 17 amino acids of the putative chloroplast transit peptide; expressed in transfected cells; host or cells: E. coli SASX38 (hemG mutant)
T4 sequence (P55826 41-537 T56K/N425S/Y426M): as the sequence (P55826 41-537 T56K/A220L) above, with L180A, N385S, Y386M counted along it
Method: as §1

[6] = target: T5, plant protox mutants (MzC-1Val, maize protox-1) in SASX38 (Arabidopsis thaliana, UniProt P55826, A220V/A252T/A259N/A262P/A292S/A82G/A83V/D204A/D323E/D487E/D93A/DEL80-81/E103P/E263P/E288N/E311D/E351S/E499D/F107Y/F178L/F250I/F483L/G171P/G277A/G306S/G313K/G344N/G441S/H340Y/I100T/I174L/I370V/I421V/I485L/I71T/I87L/INS101VE/K237R/K257S/K359R/K388Q/K457N/K465V/K78R/K92R/L137F/L159P/L310S/L325V/L345I/L360F/L436V/L86V/M122V/N105E/N149E/N241T/N258K/N316V/N355D/N459T/N85D/P266A/P418D/P458S/P84G/Q240E/Q272K/R284A/R293S/S186P/S291T/S305T/S312D/S330A/S352D/S369T/S430A/S439T/S460A/S491A/S492A/S495R/S496G/T141N/T160A/T318E/T379K/T397S/T461V/T488A/T494D/T56K/V126A/V334I/V337I/V95P); test: Bacterial cross-tolerance testing of resistant mutant plasmids in SASX38, maize protox-1 mutant; type: cell-based; design: key: + = 10× or more tolerant than WT; ++ = 100× or more tolerant than WT; − = no cross tolerance; conditions: mutant MzC-1Val vs WT plasmid in SASX38
T5 construct: expressed in transfected cells; host or cells: E. coli SASX38 (hemG mutant)
T5 sequence (P55826 other isoform, or with tags, fused parts or gaps with the stated changes): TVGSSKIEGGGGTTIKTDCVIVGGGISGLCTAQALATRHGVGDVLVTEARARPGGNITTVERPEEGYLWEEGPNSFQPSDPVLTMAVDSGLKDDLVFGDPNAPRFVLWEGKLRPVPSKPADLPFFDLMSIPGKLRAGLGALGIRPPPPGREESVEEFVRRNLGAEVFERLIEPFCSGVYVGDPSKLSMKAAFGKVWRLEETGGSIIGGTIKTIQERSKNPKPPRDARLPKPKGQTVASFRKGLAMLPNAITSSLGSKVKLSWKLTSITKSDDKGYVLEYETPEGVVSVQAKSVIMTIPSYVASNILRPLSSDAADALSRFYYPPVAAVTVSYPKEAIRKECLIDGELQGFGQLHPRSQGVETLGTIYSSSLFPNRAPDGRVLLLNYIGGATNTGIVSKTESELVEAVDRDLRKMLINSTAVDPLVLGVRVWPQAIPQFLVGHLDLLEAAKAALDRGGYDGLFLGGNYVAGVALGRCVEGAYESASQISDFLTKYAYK
Method: as §1

Structure (SMILES): COC(=O)CSc1cc(N=c2sc(=O)n3n2CCCC3)c(F)cc1Cl [VIIa]
- Tolerance [1]: ++ (++ ≧ 100× more tolerant than wt)
- Cross tolerance, AraC-1Leu [2]: ++ (++ = 100× or more tolerant than WT)
- Cross tolerance, AraC-2Ile + AraC305Leu [3]: ++ (++ = 100× or more tolerant than WT)
- Cross tolerance, AraC-2Cys + AraC425Ser [4]: ++ (++ = 100× or more tolerant than WT)
- Cross tolerance, AraC-2Met + AraC425Ser [5]: ++ (++ = 100× or more tolerant than WT)
- Cross tolerance, MzC-1Val [6]: + (+ = 10× or more tolerant than WT)

Structure (SMILES): CCCCCOC(=O)COc1cc(N2C(=O)C3=C(CCCC3)C2=O)c(F)cc1Cl [XIV]
- Tolerance [1]: + (+ ≧ 10× more tolerant than wt)
- Cross tolerance, AraC-1Leu [2]: ++ (++ = 100× or more tolerant than WT)
- Cross tolerance, AraC-2Ile + AraC305Leu [3]: ++ (++ = 100× or more tolerant than WT)
- Cross tolerance, AraC-2Cys + AraC425Ser [4]: −
- Cross tolerance, AraC-2Met + AraC425Ser [5]: ++ (++ = 100× or more tolerant than WT)
- Cross tolerance, MzC-1Val [6]: + (+ = 10× or more tolerant than WT)

Structure (SMILES): CCOC(=O)COC(=O)c1cc(Oc2ccc(C(F)(F)F)cc2Cl)ccc1[N+](=O)[O-] [IV]
- Tolerance [1]: ± (± ≦ 10× more tolerant than wt)
- Cross tolerance, AraC-1Leu [2]: ++ (++ = 100× or more tolerant than WT)
- Cross tolerance, AraC-2Ile + AraC305Leu [3]: + (+ = 10× or more tolerant than WT)
- Cross tolerance, AraC-2Cys + AraC425Ser [4]: −
- Cross tolerance, AraC-2Met + AraC425Ser [5]: + (+ = 10× or more tolerant than WT)
- Cross tolerance, MzC-1Val [6]: −

Structure (SMILES): CC(C)OC(=O)c1cc(-n2c(=O)cc(C(F)(F)F)n(C)c2=O)ccc1Cl [XI]
- Tolerance [1]: ++ (++ ≧ 100× more tolerant than wt)
- Cross tolerance, AraC-1Leu [2]: ++ (++ = 100× or more tolerant than WT)
- Cross tolerance, AraC-2Ile + AraC305Leu [3]: ++ (++ = 100× or more tolerant than WT)
- Cross tolerance, AraC-2Cys + AraC425Ser [4]: ++ (++ = 100× or more tolerant than WT)
- Cross tolerance, AraC-2Met + AraC425Ser [5]: ++ (++ = 100× or more tolerant than WT)
- Cross tolerance, MzC-1Val [6]: + (+ = 10× or more tolerant than WT)
